Measured values from publication PMC7763113, “Design, synthesis, cytotoxic activity, and apoptosis inducing effects of 4- and N-substituted benzoyltaurinamide derivatives” (Turkish Journal of Chemistry, 2020).
Where “and” joins values, the source holds several entries; their conditions need not be identical. Identical values can stand only once. Entries after “also recorded” stand apart in the source; their conditions may differ. Like-named read-outs stand apart in the source and are kept apart here.

Key:
[1] = MTT cytotoxicity assay, MCF-10a (nontumorigenic); format: cell-based; details: MCF-10a nontumorigenic mammary cells, MCF-10a nontumorigenic human mammary cell line, mean ± SD, read-out: Cytotoxic activity IC50, MCF-10a
From the text: [The source words this procedure for another cell line and reports this cell line under the same test.] (§1) The human neuroblastoma cells (SH-SY5Y), triple-negative breast cancer cells (MDA-MB-231), and human pancreatic cancer cells (Panc1) used in this study were purchased from the American Type Culture Collection (ATCC). The cells were suspended in complete Dulbecco’s modified Eagle medium (DMEM) (Life Technologies, Gibco BRL, Grand Island, NY) supplemented with 10% fetal bovine serum (FBS, Hyclone), 1% penicillin and streptomycin (100 U/mL, Invitrogen) and plated in cell culture dishes. The cultures were maintained at 37 °C in a 5% CO2 95% humidified atmosphere. After reaching 85% confluence, the cells were transferred to 96-well plates or culture dishes. For MTT assays, the cells were seeded into 96-well cell culture plates at a density of 2 × 10^3 cells per well and allowed to adhere for 24 h. The cells were treated with fresh medium containing experimental compounds (100, 10, 1 µM) and incubated in a 5% CO2 incubator for 48 and 72 h. For protein analysis, the cells were seeded into 6-well cell culture plates at a density of 0.5 x 10^6 cells/well and allowed to adhere to the surface for 24 h. The stock solutions of the test compounds (5 mM) were prepared in sterile DMSO, and these stocks were then appropriately diluted with the complete culture medium. DMSO levels were maintained below 1% in the test concentrations.
(§2) Briefly, following exposures, MTT (at a final concentration of 0.5 mg/mL) was added to each well, and plates were incubated for 2 h at 37 °C in a 5% CO2 humidified incubator. The reaction mixture was removed, and DMSO was added to each well. The plates were shaken at room temperature, and the absorbance was measured at 570 nm and 630 nm using a microplate reader (VersaMax, Molecular Devices, USA). Percent survival was plotted relative to vehicle control cells, which were normalized to 100% survival.

[2] = tested on: SH-SY5Y human neuroblastoma cells; assay: MTT cytotoxicity assay, SH-SY5Y; format: cell-based; details: mean ± SD, read-out: Cytotoxic activity IC50, SH-SY5Y
From the text: as §1, §2

[3] = tested on: MDA-MB-231 triple-negative breast cancer cells; assay: MTT cytotoxicity assay, MDA-MB-231; format: cell-based, human; details: mean ± SD, read-out: Cytotoxic activity IC50, MDA-MB-231
From the text: as §1, §2

[4] = tested on: PANC-1 human pancreatic cancer cells; assay: MTT cytotoxicity assay, PANC-1; format: cell-based; details: mean ± SD, read-out: Cytotoxic activity IC50, PANC-1
From the text: as §1, §2

[5] = tested on: BAX, Bcl-2, Bcl-xL, caspase-3 and caspase-9 expression in MDA-MB-231 cell line; assay: Western blot of apoptotic proteins, MDA-MB-231; format: cell-based, human; details: for BAX protein levels: after only 24 h; for increase of caspase-9 activity: after only 48 h, relative to control
Experimental: (§3) The cells (0.5 × 10^6 cell/well) were seeded into 6 well plates and incubated for 24 h, and then treated with selected experimental compounds for 24 h and 48 h. Following incubation, the cells were washed with ice-cold 1X PBS and lysed in 1X cell lysis buffer. These lysates were quantified using the BCA protein assay. Then, the cell lysates were analyzed by western blot.
(§4) On a 12% (w/v) tris-glycine denaturing gel, 20 μg protein was separated by electrophoresis, and then transferred to a PVDF membrane. After blocking, the membrane was incubated with primary antibodies, anti-Bax rabbit monoclonal antibody, anti-Bcl-2 rabbit monoclonal antibody, anti-Bcl-xL rabbit monoclonal antibody, anti-caspase-3 rabbit monoclonal antibody, and anti-caspase-9 rabbit monoclonal antibody (1:1000, Cell Signaling Technology) at 4 °C overnight. Following the incubation, the membrane was incubated with an anti-β-actin mouse monoclonal antibody (1:1000, Cell Signaling Technology) at room temperature for 1 h. After washing, the membrane was incubated with peroxidase-conjugated secondary antibodies for 1 h to visualize labeled proteins by enhanced chemiluminescence.

MDA-MB-231 cells = assay: Annexin V-FITC/PI flow cytometry, MDA-MB-231; format: cell-based, human; details: 48 h, control 1.2%
Experimental: (§5) The cells were harvested after 48 h, washed with PBS, and analyzed using the Annexin V FITC/PI Apoptosis Detection kit (BioVision, Mountain View, CA, USA) with a benchtop flow cytometer (Accuri C6 flow cytometry, Becton Dickinson).

PANC-1 cells = assay: Annexin V-FITC/PI flow cytometry, PANC-1; format: cell-based, human; details: at cytotoxic concentrations, 48 h
Experimental: as §5

SH-SY5Y cells = assay: Annexin V-FITC/PI flow cytometry, SH-SY5Y; format: cell-based, human; details: 48 h, control 3.2%
Experimental: as §5

[6] = tested on: BAX, Bcl-2, Bcl-xL, caspase-3 and caspase-9 expression in PANC-1 cell line; assay: Western blot of apoptotic proteins, PANC-1; format: cell-based, human; details: at IC50, 24 and 48 h, vs control
Experimental: as §3, §4

SMILES | melting point [°C] | IC50 [1] [µM] | IC50 ([2]; Homo sapiens, SH-SY5Y) [µM] | IC50 ([3]; Homo sapiens, MDA-MB-231, MTT) [µM] | IC50 ([4]; Homo sapiens, PANC-1, MTT) [µM] | other results
O=C(NCCS(=O)(=O)N1CCOCC1)c1ccccc1 [Compound 5, N-(2-(morpholinosulfonyl)ethyl)benzamide] | 107 to 108 | 89.6 ± 1.5 | 118 ± 1.8 | 103 ± 1.7 | 24.2 ± 2.1 | 
COc1ccc(NS(=O)(=O)CCNC(=O)c2ccc(C)cc2)cc1 [Compound 16, N-(2-(N-(4-methoxyphenyl)sulfamoyl)ethyl)-4-methylbenzamide] | 127 to 128 | 132.9 ± 1.2 | 32.7 ± 1.7 | 15.7 ± 1.9 | 21.4 ± 1.7 | 
Cc1ccc(C(=O)NCCS(N)(=O)=O)cc1 [Compound 12, 4-Methyl-N-(2-sulfamoylethyl)benzamide] | 181 to 182 | 106 ± 1.4 | 79.5 ± 1.8 | 81 ± 1.6 | 44.6 ± 1.9 | 
COc1ccc(C(=O)NCCS(=O)(=O)N2CCOCC2)cc1 [Compound 7, 4-Methoxy-N-(2-(morpholinosulfonyl)ethyl)benzamide] | 183.5 to 184.5 | 118 ± 1.2 | 134 ± 1.7 | 136 | 1.2 ± 1.8 | caspase-3 expression (in words) ([5]; Western blot): lack of change; BAX protein levels ([5]; Western blot): significantly increased; decrease of Bcl-2 expression ([5]; after 24 and 48 h, compared to control): 2- to 3 fold; percent of the positive apoptotic cells (MDA-MB-231 cells): no changes; apoptotic cell ratios (Annexin V-FITC/PI result) (PANC-1 cells): no significant changes; also recorded: negative; apoptotic cell ratios (SH-SY5Y cells): no positive results; IC50 ([3]; MTT): 79 µM and 77 µM; BAX expression [6]: effectively upregulated; Bcl-2 expression [6]: did not show any effect; Bcl-xL expression [6]: slightly decreased; caspase-3 expression [6]: effectively upregulated; caspase-9 expression [6]: effectively upregulated
O=C(NCCS(=O)(=O)Nc1ccccc1)c1ccc(Cl)cc1 [Compound 2, 4-Chloro-N-(2-(N-phenylsulfamoyl)ethyl)benzamide] | 143.8 to 144.8 | 232.9 ± 2.1 | 29 ± 1.5 | 99.7 ± 1.1 | 86.6 | BAX protein levels ([5]; Western blot): significantly increased; IC50 ([4]; MTT): 86.6 ± 1.6 µM; BAX expression [6]: significantly upregulated; Bcl-2 expression [6]: significantly upregulated
Cc1ccc(C(=O)NCCS(=O)(=O)N2CCOCC2)cc1 [Compound 8, 4-Methyl-N-(2-(morpholinosulfonyl)ethyl)benzamide] | 174.2 to 175.2 | 81.4 ± 1.3 | 79.3 ± 1.6 | 81.5 ± 1.2 | 120.3 ± 1.2 | 
O=C(NCCS(=O)(=O)N1CCOCC1)c1ccc(Cl)cc1 [Compound 6, 4-Chloro-N-(2-(morpholinosulfonyl)ethyl)benzamide] | 162 to 163 | 70.7 ± 1.8 | 80.6 | 79.1 | 8.8 ± 2.1 | BAX protein levels ([5]; Western blot): significantly increased; increase of caspase-9 activity [5]: 1.06 fold; IC50 [2]: 80.6 ± 1.9 µM; IC50 ([3]; MTT): 136 ± 1.5 µM
NS(=O)(=O)CCNC(=O)c1ccccc1 [Compound 9, N-(2-sulfamoylethyl)benzamide] | 162 to 163 | 109 ± 1.1 | 81.1 ± 2.1 | 99.8 ± 1.7 | 85.5 ± 1.7 | 
O=C(NCCS(=O)(=O)Nc1ccccc1)c1ccccc1 [Compound 1, N-(2-(N-phenylsulfamoyl)ethyl)benzamide] | 123.7 to 124.7 | 78.2 ± 1.6 | 92.2 ± 1.5 | 140.4 ± 1.1 | 86.7 ± 1.4 | 
COc1ccc(C(=O)NCCS(N)(=O)=O)cc1 [Compound 11, 4-Methoxy-N-(2-sulfamoylethyl)benzamide] | 176 to 177 | 81.1 ± 1.4 | 237.8 ± 1.7 | 114 ± 1.3 | 83.8 ± 1.5 | 
COc1ccc(C(=O)NCCS(=O)(=O)Nc2ccccc2)cc1 [Compound 3, 4-Methoxy-N-(2-(N-phenylsulfamoyl)ethyl)benzamide] | 121.3 to 122.3 | 98.9 ± 1.2 | 57.4 ± 1.6 | 111 ± 1.2 | 104 ± 1.6 | 
Cc1ccc(C(=O)NCCS(=O)(=O)Nc2ccccc2)cc1 [Compound 4, 4-Methyl-N-(2-(N-phenylsulfamoyl)ethyl)benzamide] | 149.7 to 150.7 | 132 ± 1.7 | 75.9 ± 1.6 | 89.7 ± 1.5 | 86.6 ± 1.4 | 
COc1ccc(NS(=O)(=O)CCNC(=O)c2ccccc2)cc1 [Compound 13, N-(2-(N-(4-methoxyphenyl)sulfamoyl)ethyl)benzamide] | 110 to 111 | 217.8 ± 1.3 | 47.5 ± 1.5 | 76.1 ± 1.6 | 17.9 ± 2.1 | 
NS(=O)(=O)CCNC(=O)c1ccc(Cl)cc1 [Compound 10, 4-Chloro-N-(2-sulfamoylethyl)benzamide] | 158 to 159 | 172.1 ± 1.4 | 38.6 ± 1.6 | 77 | 89.1 ± 1.7 | BAX protein levels ([5]; Western blot): significantly increased; increase of caspase-9 activity [5]: 1.12 fold; IC50 ([3]; MTT): 79.1 ± 1.3 µM; caspase-3 expression [6]: effectively increased
